Laboratory results taken from the supplement of paper PMC8967900.

Columns and labels:
Assay in all cases: selective drug sensitivity score (sDSS, relative to normal bone marrow) (sDSS (score)); higher = more potent and effective on the cell line relative to normal bone marrow cells
Conditions in all cases: 72 h
P30-OHKUBO = tested on: P30-OHKUBO
NALM-16 = tested on: NALM-16
MOLT-16 = tested on: MOLT-16
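Also: ALL cell lines in 384-well plates, five doses spanning 10,000-fold, each plate scaled between vehicle and 100 µmol/L benzalkonium chloride controls, sDSS an adapted area-under-curve metric.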

Row | SMILES | selective drug sensitivity score (P30-OHKUBO) | selective drug sensitivity score (NALM-16) | selective drug sensitivity score (MOLT-16)
1 | Cc1cnc(-c2ccccc2C(C)C)nc1NCc1ccc(-n2ccnn2)cc1 [ML323] (top concentration 10000 nM) | 0.54 | 0.64 | 3.04
2 | O=C(CCNC(=O)c1ccc(OC(F)(F)F)cc1)N[C@@H]1CCCc2ccccc21 [ML390] (top concentration 50000 nM) | 13.6 | 6.6 | 20.8
3 | CN(C)C(=N)NC(=N)N [Metformin] (top concentration 100000 nM) | -0.02 | -0.02 | -0.02
4 | C[C@H]1C[C@@H]2[C@H]([C@@H](O)C[C@@]3(C)[C@H]2CC[C@]3(O)C(=O)CO)[C@@]2(C)C=CC(=O)C=C12 [Methylprednisolone] (top concentration 10000 nM) | 18.6 | -2.3 | 7.9
5 | FC(F)(F)c1ccc(/C=C/c2nc(COc3ccc(CCCCn4ccnn4)cc3)co2)cc1 [Mubritinib] (top concentration 1000 nM) | 7.06 | 4.66 | 18.6
6 | COc1cc2c(cc1OC(C)C)[C@H](c1ccc(Cl)cc1)N(c1ccc(N(C)C[C@H]3CC[C@H](N4CCN(C)C(=O)C4)CC3)cc1)C(=O)C2 [NVP-CGM097] (top concentration 25000 nM) | 10.2 | -4.54 | 10.4
7 | CCOc1cc2ncc(C#N)c(Nc3ccc(OCc4ccccn4)c(Cl)c3)c2cc1NC(=O)/C=C/CN(C)C [Neratinib] (top concentration 1000 nM) | 2.78 | 1.78 | 1.98
8 | COc1ncc(-c2ccc3nccc(-c4ccnnc4)c3c2)cc1NS(=O)(=O)c1ccc(F)cc1F [Omipalisib] (top concentration 1000 nM) | 18.6 | 8.1 | 10
9 | CN1CCN(c2cc(C(=O)Nc3ccc4c(c3)-c3c(c(C(N)=O)nn3-c3ccc(F)cc3)CC4)c(Cl)cn2)CC1 [PHA-408] (top concentration 10000 nM) | 1.48 | -4.62 | 1.28
10 | OC[C@H]1O[C@@H](n2cnc3c2N=CNC[C@H]3O)C[C@@H]1O [Pentostatin] (top concentration 10000 nM) | -0.44 | -0.44 | -0.34
11 | CC(C)N(C[C@H]1O[C@@H](n2cnc3c(N)ncnc32)[C@H](O)[C@@H]1O)[C@H]1C[C@@H](CCc2nc3cc(C(C)(C)C)ccc3[nH]2)C1 [Pinometostat] (top concentration 1000 nM) | 0 | 0 | 0
12 | Cc1ccc(=O)n(-c2ccccc2)c1 [Pirfenidone] (top concentration 10000 nM) | 0 | 0 | 0
13 | NCCNc1ccc(NCCN)c2c1C(=O)c1ccncc1C2=O [Pixantrone] (top concentration 10000 nM) | -1.06 | -2.76 | -2.46
14 | c1cc(CN2CCCNCCNCCCNCC2)ccc1CN1CCCNCCNCCCNCC1 [Plerixafor] (top concentration 10000 nM) | 0 | 0 | 0
15 | O=C(c1ccc(OCCN2CCCCC2)cc1)c1c(-c2ccc(O)cc2)sc2cc(O)ccc12 [Raloxifene] (top concentration 10000 nM) | 1.82 | -2.28 | 1.02
16 | CN(C)C(=O)c1cc2cnc(Nc3ccc(N4CCNCC4)cn3)nc2n1C1CCCC1 [Ribociclib] (top concentration 10000 nM) | 6.58 | 1.48 | 4.88
17 | CN1CCN(CCOc2cc(OC3CCOCC3)c3c(Nc4c(Cl)ccc5c4OCO5)ncnc3c2)CC1 [Saracatinib] (top concentration 10000 nM) | 5.58 | -2.02 | 2.38

Row | SMILES | selective drug sensitivity score (P30-OHKUBO) | selective drug sensitivity score (NALM-16) | selective drug sensitivity score (MOLT-16)
18 | C=CC(=O)Nc1cccc(Nc2nc(Nc3ccc(OCCOC)cc3)ncc2F)c1 [Spebrutinib] (top concentration 1000 nM) | 4.64 | -0.16 | 0.64
19 | C[C@@H]1CN(Cc2ccc(F)cc2)[C@@H](C)CN1C(=O)c1cc2c(C(=O)C(=O)N(C)C)cn(C)c2cc1Cl [Talmapimod] (top concentration 10000 nM) | 0.2 | 0 | 0
20 | C[C@@H](C(=O)O)c1ccc(-c2ccccc2)c(F)c1 [Tarenflurbil] (top concentration 10000 nM) | -0.16 | 0.04 | 5.04
21 | CNC(=O)c1cc(COc2nnc(Nc3ccc(Cl)cc3)c3ccoc23)ccn1 [Telatinib] (top concentration 10000 nM) | 2.9 | 0 | 0
22 | O=c1sn(-c2cccc3ccccc23)c(=O)n1Cc1ccccc1 [Tideglusib] (top concentration 3000 nM) | -0.3 | -0.3 | -0.3
23 | COc1cc2nccc(Oc3ccc(NC(=O)Nc4cc(C)on4)c(Cl)c3)c2cc1OC [Tivozanib] (top concentration 10000 nM) | 4.56 | -3.44 | 3.66
24 | Cc1cc(Nc2cc(N3CCN(C)CC3)nc(Sc3ccc(NC(=O)C4CC4)cc3)n2)n[nH]1 [Tozasertib] (top concentration 10000 nM) | 22.2 | -0.34 | 22.7
25 | CC1=C(/C=C/C(C)=C/C=C/C(C)=C/C(=O)O)C(C)(C)CCC1 [Tretinoin] (top concentration 10000 nM) | -2.4 | -2.4 | -2.4
26 | COC(=O)c1ccc2c(c1)[nH]c1ncnc(NCCCN3CCCCC3)c12 [UM729] (top concentration 10000 nM) | 1.44 | 0.44 | 0.94
27 | COc1cc2c(NC3CCN(C(C)C)CC3)nc(N3CCC(F)(F)CC3)nc2cc1OCCCN1CCCC1 [UNC0642] (top concentration 10000 nM) | 2.06 | -3.74 | -2.94
28 | O=C(c1ccc(C(=O)N2CCC(N3CCCC3)CC2)c(Nc2ccccc2)c1)N1CCC(N2CCCC2)CC1 [UNC1215] (top concentration 10000 nM) | 0 | 0 | 0
29 | CCCC(CCC)C(=O)O [Valproic_acid] (top concentration 1000000 nM) | 0 | 0 | 0
30 | Clc1ccc(Nc2nnc(Cc3ccncc3)c3ccccc23)cc1 [Vatalanib] (top concentration 10000 nM) | 0 | 0 | 0
31 | CCCS(=O)(=O)Nc1ccc(F)c(C(=O)c2c[nH]c3ncc(-c4ccc(Cl)cc4)cc23)c1F [Vemurafenib] (top concentration 10000 nM) | 3.86 | -1.14 | 3.76
32 | CC[C@]1(O)C[C@H]2CN(CCc3c([nH]c4ccccc34)[C@@](C(=O)OC)(c3cc4c(cc3OC)N(C)[C@H]3[C@@](O)(C(=O)OC)[C@H](OC(C)=O)[C@]5(CC)C=CCN6CC[C@]43[C@@H]65)C2)C1 [Vinblastine] (top concentration 1000 nM) | 9.8 | 5.4 | 0.7
33 | CC[C@]1(O)C[C@H]2CN(CCc3c([nH]c4ccccc34)[C@@](C(=O)OC)(c3cc4c(cc3OC)N(C=O)[C@H]3[C@@](O)(C(=O)OC)[C@H](OC(C)=O)[C@]5(CC)C=CCN6CC[C@]43[C@@H]65)C2)C1 [Vincristine] (top concentration 1000 nM) | 17.4 | 12.3 | 9.52
34 | FC(F)c1nc2ccccc2n1-c1nc(N2CCOCC2)nc(N2CCOCC2)n1 [ZSTK474] (top concentration 10000 nM) | 13.3 | 0.56 | 6.46
